{"source": "paper PMC5082644", "about": "(Molecular Vision, 2016)", "origin": "cited, not measured here", "test_system": "complement activation / C5b-9n (MAC) deposition in human fetal RPE cell cultures", "conditions": "among peptides with polar dipeptides added at the N-terminus", "data": [{"substance": "Ac-RSI[CV(meW)QDWGAHRC]T-NH2 (disulfide)", "values": [{"measurement": "Efficacy in the human RPE cell-based assay", "value": "most efficacious"}]}]}
